Measurements: PubChem BioAssay (NCI)
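Values below derive from 48-hour exposures of cells grown in 96-well plates, with endpoints linearly interpolated between the two concentrations bracketing the appropriate inhibition level. TGI: total growth inhibition.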

Columns and labels:
Experiment in all cases: growth of human tumour cells (NCI), 48 h
BT-549 breast = test system: BT-549 breast
HL-60(TB) leukemia = test system: HL-60(TB) leukemia
MDA-N = test system: MDA-N
MALME-3M melanoma = test system: MALME-3M melanoma
UO-31 renal = test system: UO-31 renal
SK-MEL-28 melanoma = test system: SK-MEL-28 melanoma
A498 renal = test system: A498 renal
COLO 205 colon = test system: COLO 205 colon
HCT-116 colon = test system: HCT-116 colon
TK-10 renal = test system: TK-10 renal

Structure (SMILES)	TGI (BT-549 breast)	TGI (HL-60(TB) leukemia)	TGI (MDA-N)	TGI (MALME-3M melanoma)	TGI (UO-31 renal)	TGI (SK-MEL-28 melanoma)	TGI (A498 renal)	TGI (COLO 205 colon)	TGI (HCT-116 colon)	TGI (TK-10 renal)
COc1cccc(C23CCCC(C2)N(C)CC3OC(=O)c2ccccc2)c1OC (stereo unspecified)	44.9 µM	28.3 µM	37.7 µM	48.1 µM	> 100 µM	87.8 µM	> 100 µM	29 µM	> 100 µM	–
Cc1cn(CCOCCOC(=O)NC(CCCNC(N)=O)C(=O)O)c(=O)[nH]c1=O (stereo unspecified)	> 100 µM	> 100 µM	> 100 µM	–	> 100 µM	> 100 µM	–	> 100 µM	> 100 µM	> 100 µM
COc1cc2c(cc1OC)C(=O)/C(=C/c1ccc(O)cc1)CC2	> 10 µM	> 10 µM	> 10 µM	> 10 µM	4.32 µM	> 10 µM	–	> 10 µM	> 10 µM	> 10 µM
O=[N+]([O-])c1ccc2nc(/C=C(\O)c3ccc(Cl)cc3)c(/C=C(\O)c3ccc(Cl)cc3)nc2c1	> 100 µM	–	> 100 µM	> 100 µM	> 100 µM	–	> 100 µM	> 100 µM	> 100 µM	> 100 µM
COc1cc(S(=O)(=O)Nc2ccc(-c3csc(/N=C\c4ccccc4)n3)cc2)ccc1Cl	> 100 µM	> 100 µM	> 100 µM	> 100 µM	> 100 µM	> 100 µM	> 100 µM	> 100 µM	> 100 µM	–
CC(=O)Nc1ccc(/C=C2/NC(=S)N(/C=C3\C(=O)Oc4ccccc4C3=O)C2=O)cc1	–	> 100 µM	> 100 µM	> 100 µM	> 100 µM	> 100 µM	> 100 µM	> 100 µM	> 100 µM	> 100 µM
O=C(NCCCCCCO)c1cccc2cc3ccccc3nc12	33.2 µM	74.8 µM	12.9 µM	–	–	42.5 µM	–	25.3 µM	33.1 µM	34.6 µM
CCn1c(=O)c2c3ccc(OC(C)=O)cc3[nH]c2c2ccc(OC(C)=O)cc21	> 100 µM	–	> 100 µM	> 100 µM	> 100 µM	> 100 µM	–	> 100 µM	30.1 µM	> 100 µM
COC(=O)[C@@H]1C=C[C@H](NC(C)=O)C1	> 100 µM	–	> 100 µM	> 100 µM	> 100 µM	> 100 µM	> 100 µM	> 100 µM	> 100 µM	> 100 µM
O=c1oc2cccnc2n1CCCCN1CCN(c2ccccc2)CC1	–	> 100 µM	> 100 µM	> 100 µM	> 100 µM	> 100 µM	> 100 µM	–	> 100 µM	> 100 µM
CC(=Nc1cc(Cl)cc(Cl)c1)c1ccncc1	> 100 µM	–	> 100 µM	> 100 µM	> 100 µM	> 100 µM	> 100 µM	> 100 µM	> 100 µM	> 100 µM
COC(=O)C1CC23C=CCN4CC(C2C)C2(c5ccccc5NC12)C43 (stereo unspecified)	> 100 µM	> 100 µM	> 100 µM	> 100 µM	–	> 100 µM	> 100 µM	> 100 µM	> 100 µM	> 100 µM
Nc1ccc2c(c1)NC(=O)[C@@H]1CCCN1C2=O	> 100 µM	> 100 µM	> 100 µM	–	> 100 µM	> 100 µM	> 100 µM	> 100 µM	> 100 µM	> 100 µM
O=c1[nH]c2cc([N+](=O)[O-])c(Nc3c4ccccc4nc4ccccc34)c([N+](=O)[O-])c2[nH]1	23 µM	9.39 µM	–	5.09 µM	5.98 µM	12.9 µM	6.86 µM	6.97 µM	7.39 µM	6.85 µM
CC(=O)NC(=O)NC1=NCCC(=O)N1CCc1c[nH]c2ccccc12	–	> 100 µM	> 100 µM	> 100 µM	> 100 µM	> 100 µM	> 100 µM	> 100 µM	> 100 µM	> 100 µM
CCN(CCCl)c1cccc(NC(=O)c2ccc(C(=O)Nc3cccc(CN(C)C)c3)cc2)c1	–	12.7 µM	0.286 µM	0.166 µM	1.81 µM	0.68 µM	0.502 µM	0.24 µM	12.4 µM	0.779 µM
COc1cc2oc(=O)cc(C)c2c(OC)c1OC(C)=O	–	–	> 100 µM	> 100 µM	> 100 µM	> 100 µM	> 100 µM	> 100 µM	> 100 µM	> 100 µM
